From patent publication US20100028485A1, “TALAROMYCES EMERSONII ENZYME SYSTEMS” (priority 2006, published 2010) come the findings set out here.

“Also recorded” adds a separate entry of the source.

What all share (format): biochemical, Talaromyces emersonii
Assay [1] concerns EG V. Description: Effects of metal ions, chemical modification reagents, detergents and potential inhibitors on EG V. The note with it: for EG V activity, Enzyme + reagent (control = 100.0): Preincubation of enzyme with reagent for 30 min (50 C) prior to addition of substrate; for EG V activity, Substrate + reagent (control = 100.0): Preincubation of substrate with reagent for 30 min (50 C) prior to addition of enzyme. Here is the method: (§1) Substrate specificity on various polysaccharides and synthetic glycosides was evaluated by 15 measuring activity against a wide variety of carbohydrates (BBG, lichenan, CMC, other polysaccharides and synthetic glycosides) using the normal β-glucanase assay procedure. • Effects Of Metal Ions, Chemical Modification Reagents And Potential Inhibitors A range of monovalent, divalent and heavy metal ions, at final assay concentrations of 1.0 mM, were investigated for their potential effects on the activities of EG V, EG VI and EG VII, by incubating the enzymes with the chemicals and then conducting the normal enzyme assay. Finally, the inhibitor effects of glycosides, such as disaccharides, lactones and flavanoid glycosides on the purified enzymes were examined. Specified concentrations of each glycoside were included in normal assay cocktails and residual activity determined by comparison with controls (no glycoside present).
(§2) Activity was expressed as a % relative to a control (no metal ion present in incubation mixture). In general, heavy metal ions are thought to inactivate enzymes by forming covalent salts with cysteine, histidine or carboxyl groups. […] A selection of reagents known to modify amino acid R-groups in proteins were tested for their effects on EG V, EG VI and EG VII, both in the absence and presence of substrate (substrate-protective effects could be observed in this manner) (see Table 6).

In assay [2] the test system is EG VI. Description: Effects of metal ions, chemical modification reagents, detergents and potential inhibitors on EG VI. The note with it: for decrease in activity of EG VI: 1 mM metal ion, relative to control without metal ion; for EV VI activity, Enzyme + reagent (control = 100.0): Preincubation of enzyme with reagent for 30 min (50 C) prior to addition of substrate; for EGVI activity, Substrate + reagent (control = 100.0): Preincubation of substrate with reagent for 30 min (50 C) prior to addition of enzyme. Here is the method: as §1, §2

The test system of assay [3] is EG VII. Kind of assay: Effects of metal ions, chemical modification reagents, detergents and potential inhibitors on EG VII. The note with it: for EG VII activity, Enzyme + reagent (control = 100.0): Preincubation of enzyme with reagent for 30 min (50 C) prior to addition of substrate; for EG VII activity, Substrate + reagent (control = 100.0): Preincubation of substrate with reagent for 30 min (50 C) prior to addition of enzyme. Here is the method: as §1, §2

Assay [4] concerns EG V, EG VI and EG VII. Kind of assay: Effects of metal ions, reagents, phenolics and glycosides stated for all three enzymes. The note with it: for inhibition by sulphydryl reagents: in the presence or absence of substrate; for effect of phenolic substances on enzyme activity: pre-incubation of enzyme with compound in the absence of substrate. Here is the method:
as §1, §2

For the compound `[Fe+2]` [Fe^2+], in assay [1] (1 mM metal ion, relative to control without metal ion), the “increase in activity of EG V” value is on record as 20%. Besides, the “decrease in activity of EG VI” value in assay [2] is listed as 38.6%; in assay [2] (listed as Fe^3+), 53.6-59.3%. In assay [3] (1 mM), the “enhancement of EG VII activity by SO4^2− salt relative to corresponding Cl^− salt” value was around 4.5 fold. Besides, the “effect of metal ion on EG VII” value in assay [3] (1 mM metal ion) is reported as “minimum effects”. In addition, the “decrease in activity of all three enzymes” value in assay [4] (1 mM metal ion) is 35.4-88.0%. Further, in assay [4] (1 mM metal ion), the “effect of metal ion on activity of all three enzymes” value is on record as “markedly decreased activity”.
As for `NC(=O)CI` [Iodoacetamide], in assay [1], the “EG V activity, Enzyme + reagent (control = 100.0)” value was 103.6 and the “EG V activity, Substrate + reagent (control = 100.0)” value was 87.4. Besides, in assay [2], the “EV VI activity, Enzyme + reagent (control = 100.0)” value worked out at 99.9 and the “EGVI activity, Substrate + reagent (control = 100.0)” value came to 122.6. In assay [3], the “EG VII activity, Enzyme + reagent (control = 100.0)” value was found to be 101.6 and the “EG VII activity, Substrate + reagent (control = 100.0)” value amounted to 83.7. Besides, the “inhibition by sulphydryl reagents” value in assay [4] is “little or no inhibition”.
As for `[Mg+2]` [Mg^2+], the “decrease of EG V activity by SO4^2− salt relative to Cl^− salt of same cation” value in assay [1] (1 mM) worked out at 54.2%. Also, the “decrease of EG VI activity by SO4^2− salt relative to Cl^− salt of same cation” value in assay [2] (1 mM) is given as 50.1%. Also, in assay [4] (1 mM metal ion), the “effect of metal ion on activity of all three enzymes” value is “enhanced the activity”.
With `COc1cc(/C=C/C(=O)O)ccc1O` [ferulic acid], the “effect of phenolic substances on enzyme activity” value (“effect of phenolic substances” for short) in assay [4] is “did not have a marked inhibitory effect”.
For `Oc1cccc(-c2ccccc2)c1` [m-phenylphenol], the “effect of phenolic substances” value in assay [4] is listed as “did not have a marked inhibitory effect”.
In the case of `OC[C@H]1O[C@H](O[C@H]2[C@H](O)[C@@H](O)[C@H](O)O[C@@H]2CO)[C@H](O)[C@@H](O)[C@@H]1O` [maltose], in assay [4], the “effect of glycosides/disaccharides on activity of EG V-VII” value (“effect of glycosides/disaccharides” below) was “no apparent effect”.
As for `OC[C@H]1O[C@H](OCC2O[C@@H](O)[C@H](O)[C@@H](O)[C@@H]2O)[C@H](O)[C@@H](O)[C@H]1O` (some centres unmarked) [melibiose], the “effect of glycosides/disaccharides” value in assay [4] is listed as “no apparent effect”.
On to `O=C(O)/C=C/c1ccccc1O` [o-coumaric acid], for which the “effect of phenolic substances” value in assay [4] is listed as “did not have a marked inhibitory effect”.
As for `O=C(O)c1cc[c]([Hg+])cc1.[OH-]` [p-Hydroxymercuribenzoate], in assay [1], the “EG V activity, Enzyme + reagent (control = 100.0)” value came out at 92.8 and the “EG V activity, Substrate + reagent (control = 100.0)” value turned out to be 261.7. Also, in assay [2], the “EV VI activity, Enzyme + reagent (control = 100.0)” value was 98.3 and the “EGVI activity, Substrate + reagent (control = 100.0)” value is 125.0. In assay [3], the “EG VII activity, Enzyme + reagent (control = 100.0)” value came out at 99.5 and the “EG VII activity, Substrate + reagent (control = 100.0)” value stood at 94.8. In assay [4], the “inhibition by sulphydryl reagents” value was “little or no inhibition”.
Regarding `O=C(O)c1ccc(O)c(O)c1` [protocatechuic acid], the “effect of phenolic substances” value in assay [4] is listed as “markedly activated”.
For `OCc1ccccc1O[C@@H]1O[C@H](CO)[C@@H](O)[C@H](O)[C@H]1O` [salicin], the “effect of glycosides/disaccharides” value in assay [4] is recorded as “no apparent effect”.
`OC[C@@H](O)[C@@H](O)[C@H](O)[C@@H](O)CO` [sorbitol]: in assay [4], the “effect of glycosides/disaccharides” value is reported as “no apparent effect”.
For the compound `OC[C@H]1O[C@@](CO)(O[C@H]2O[C@H](CO)[C@@H](O)[C@H](O)[C@H]2O)[C@@H](O)[C@@H]1O` [sucrose], the “effect of glycosides/disaccharides” value in assay [4] is reported as “no apparent effect”.
On to `COc1cc(C(=O)O)cc(OC)c1O` [syringic acid], for which the “effect of phenolic substances” value in assay [4] is “did not have a marked inhibitory effect; also recorded: markedly activated”.
Consider `O=C(OC[C@H]1O[C@@H](OC(=O)c2cc(O)c(O)c(OC(=O)c3cc(O)c(O)c(O)c3)c2)[C@H](OC(=O)c2cc(O)c(O)c(OC(=O)c3cc(O)c(O)c(O)c3)c2)[C@@H](OC(=O)c2cc(O)c(O)c(OC(=O)c3cc(O)c(O)c(O)c3)c2)[C@@H]1OC(=O)c1cc(O)c(O)c(OC(=O)c2cc(O)c(O)c(O)c2)c1)c1cc(O)c(O)c(OC(=O)c2cc(O)c(O)c(O)c2)c1` [tannic acid], for which the “effect of phenolic substances” value in assay [4] is recorded as “potent inhibitor”.
